Measurements as given in article PMC6834076, “Crystal structures of the Bacillus subtilis prophage lytic cassette proteins XepA and YomS” (Acta Crystallographica. Section D, Structural Biology, 2019).

How the values were obtained:
XlyA = target: T1, XlyA (Bacillus subtilis, UniProt P39800); experiment: thermal shift assay (SYPRO Orange); format: binding; conditions: (GlcNAc)3 concentration for this protein not stated (16 mM with HEWL)
T1 construct: full coding region, N-terminal His6 tag, vector pJOE5751 (plasmid pHWG1185), E. coli JM109, HisTrap; prophage PBSX gene

XlyB = target: T2, XlyB (Bacillus subtilis, UniProt O34391); experiment: thermal shift assay (SYPRO Orange); format: binding; conditions: (GlcNAc)3 concentration for this protein not stated (16 mM with HEWL)
T2 construct: full coding region, N-terminal His6 tag, vector pJOE5751 (plasmid pHWG1184), E. coli JM109, HisTrap; prophage PBSX gene
T2 sequence (O34391 2-317): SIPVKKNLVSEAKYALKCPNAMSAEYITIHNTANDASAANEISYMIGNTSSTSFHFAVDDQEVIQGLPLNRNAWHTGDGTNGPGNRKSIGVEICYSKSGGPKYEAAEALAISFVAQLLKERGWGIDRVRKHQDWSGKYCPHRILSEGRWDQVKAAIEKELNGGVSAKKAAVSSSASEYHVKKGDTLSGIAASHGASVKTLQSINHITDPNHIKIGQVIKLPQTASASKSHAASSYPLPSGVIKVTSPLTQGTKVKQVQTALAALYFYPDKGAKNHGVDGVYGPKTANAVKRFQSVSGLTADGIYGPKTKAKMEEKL

T1 sequence (P39800 2-297): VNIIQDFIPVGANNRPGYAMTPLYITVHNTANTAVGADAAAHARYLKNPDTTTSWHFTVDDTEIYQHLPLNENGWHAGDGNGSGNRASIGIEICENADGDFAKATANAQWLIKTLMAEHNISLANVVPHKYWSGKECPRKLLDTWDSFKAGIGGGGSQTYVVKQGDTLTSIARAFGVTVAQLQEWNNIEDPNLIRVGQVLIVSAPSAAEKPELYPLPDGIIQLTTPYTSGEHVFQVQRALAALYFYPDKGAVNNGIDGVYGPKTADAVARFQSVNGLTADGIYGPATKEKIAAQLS

dTm (XlyA): 2 °C
dTm (XlyB): 2 °C
Structure (SMILES): CC(=O)N[C@H]1[C@H](O[C@H]2[C@H](O)[C@@H](NC(C)=O)C(O)O[C@@H]2CO)O[C@H](CO)[C@@H](O[C@@H]2O[C@H](CO)[C@@H](O)[C@H](O)[C@H]2NC(C)=O)[C@@H]1O (some centres unmarked) [triacetylchitotriose]
